The values that follow come from patent US7595401B2, “Therapeutic compounds and their use in cancer” (Myriad Pharmaceuticals, Inc., priority 2006, dated 2009).

Usually % Inhibition stands for the relative decrease from the control value, in per cent. A lower % Inhibition goes with a response near the control. For orientation: IC50 means the concentration that inhibits the measured activity by half. High values mean weaker potency in that assay, low ones greater potency in that assay.

Some results are limits rather than exact numbers.

One test deals with purified human Hsp90. Kind of test: Binding Assay: fluorescence polarization with BODIPY-labeled geldanamycin. As to conditions: 5 μM compound, BODIPY-GM 10 nM, Hsp90 30 nM. The essentials:
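Compounds in 2% DMSO final compete with 10 nM BODIPY-GM for 30 nM purified human Hsp90, incubated overnight at room temperature in pH 7.3 HEPES buffer containing Na2MoO4 and DTT. Polarization (mP, ex/em 485/530) normalized to DMSO gives percent inhibition; autofluorescence-confounded data excluded.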
For orientation: Polarisation of emitted light reports the rotation of a fluorescent probe.
As for `Cc1cc(=O)oc2cc(Sc3nc4c(N)ncn(CCC5CCN(C=O)CC5)c-4n3)ccc12` [Example 533, 4-(2-{6-Amino-8-[(4-methyl-2-oxo-2 H-chromen-7-yl)thio]-3 H-purin-3-yl}ethyl)piperidine-1-carbaldehyde], the “% Inhibition at 5 μM Compound Concentration” value (shortened to “% Inhibition”) is 0.00%.
Consider `COc1cc(Sc2nc3c(N)ncn(CCC4CCN(C=O)CC4)c-3n2)c2ocnc2c1` [Example 535, 4-(2-{6-Amino-8-[(5-methoxy-1,3-benzoxazol-7-yl)thio]-3 H-purin-3-yl}ethyl)piperidine-1-carbaldehyde], for which the “% Inhibition” value was 1.00%.
Same read-out and setting: with `COc1cc(Sc2nc3c(N)nc[n+](CCC4CCN(C=O)CC4)c3[nH]2)cc(OC)c1OC` [Example 541, 4-(2-{6-Amino-8-[(3,4,5-trimethoxyphenyl)thio]-3 H-purin-3-yl}ethyl)piperidine-1-carbaldehyde] the figure was 4.00%.
The same measure, in the same setting: next, `COC(=O)c1ccnc(Sc2nc3c(N)ncn(CCC4CCN(C=O)CC4)c-3n2)c1` [Example 543, Methyl 2-({6-amino-3-[2-(1-formylpiperidin-4-yl)ethyl]-3 H-purin-8-yl}thio)isonicotinate]: 0.00%; `Cc1ccsc1Sc1nc2c(N)ncn(CCC3CCN(C=O)CC3)c-2n1` [Example 547, 4-(2-{6-Amino-8-[(3-methyl-2-thienyl)thio]-3 H-purin-3-yl}ethyl)piperidine-1-carbaldehyde]: 12.00%; `CC(=O)Nc1ccc(Sc2nc3c(N)ncn(CCC4CCN(C=O)CC4)c-3n2)c(Cl)c1` [Example 549, N-[4-({6-Amino-3-[2-(1-formylpiperidin-4-yl)ethyl]-3 H-purin-8-yl}thio)-3-chlorophenyl]acetamide]: 11.00%.
Same read-out and setting: next, `Nc1ncn(CCC2CCN(C=O)CC2)c2nc(Sc3ncccc3Br)nc1-2` [Example 551, 4-(2-{6-Amino-8-[(3-bromopyridin-2-yl)thio]-3 H-purin-3-yl}ethyl)piperidine-1-carbaldehyde]: 0.00%; `Nc1ncn(CCC2CCN(C=O)CC2)c2nc(Sc3cc(OCc4ccccc4)c(OCc4ccccc4)cc3Br)nc1-2` [Example 554, 4-[2-(6-Amino-8-{[4,5-bis (benzyloxy)-2-bromophenyl]thio}-3 H-purin-3-yl)ethyl]piperidine-1-carbaldehyde]: 0.00%.
Regarding `COc1cc(Br)c(Sc2nc3c(N)ncn(CCC4CCN(C(C)=O)CC4)c-3n2)cc1OC` [Example 566, 3-[2-(1-Acetylpiperidin-4-yl)ethyl]-8-[(2-bromo-4,5-dimethoxyphenyl)thio]-3 H-purin-6-amine], the “% Inhibition” value is 1.00%.
For `COc1ccc(Sc2nc3c(N)ncn(CCC4CCN(C(C)=O)CC4)c-3n2)cc1F` [Example 568, 3-[2-(1-Acetylpiperidin-4-yl)ethyl]-8-[(3-fluoro-4-methoxyphenyl)thio]-3 H-purin-6-amine], the “% Inhibition” value is listed as 0.00%.

Still in this test, the particulars now being: BODIPY-GM 10 nM, Hsp90 30 nM.
Compound `COc1cc(Sc2nc3c(N)ncnc3n2CCC2CCN(C=O)CC2)c2ocnc2c1` [Example 534, 4-(2-{6-Amino-8-[(5-methoxy-1,3-benzoxazol-7-yl)thio]-9 H-purin-9-yl}ethyl)piperidine-1-carbaldehyde] had a 50% inhibitory concentration (IC50) of 5 µM.
The compound `COc1ccc([N+](=O)[O-])cc1Sc1nc2c(N)ncnc2n1CCC1CCN(C=O)CC1` [Example 536, 4-(2-{6-Amino-8-[(2-methoxy-5-nitrophenyl)thio]-9 H-purin-9-yl}ethyl)piperidine-1-carbaldehyde] registered a concentration for half-maximal inhibition (IC50) above 5 µM.
Same read-out and setting: with `COc1ccc([N+](=O)[O-])cc1Sc1nc2c(N)ncn(CCC3CCN(C=O)CC3)c-2n1` [Example 537, 4-(2-{6-Amino-8-[(2-methoxy-5-nitrophenyl)thio]-3 H-purin-3-yl}ethyl)piperidine-1-carbaldehyde] the figure was above 5 µM.
Regarding `COc1ccnc(Sc2nc3c(N)ncnc3n2CCC2CCN(C=O)CC2)c1` [Example 538, 4-(2-{6-Amino-8-[(4-methoxypyridin-2-yl)thio]-9 H-purin-9-yl}ethyl)piperidine-1-carbaldehyde], the concentration for half-maximal inhibition (IC50) was determined as 1.6 µM.
On the same count and under the same terms, with `Nc1ncnc2c1nc(Sc1ccc3occc3c1)n2CCC1CCN(C=O)CC1` [Example 539, 4-{2-[6-Amino-8-(1-benzofuran-5-ylthio)-9 H-purin-9-yl]ethyl}piperidine-1-carbaldehyde] the figure was above 5 µM; with `COc1cc(Sc2nc3c(N)ncnc3n2CCC2CCN(C=O)CC2)cc(OC)c1OC` [Example 540, 4-(2-{6-Amino-8-[(3,4,5-trimethoxyphenyl)thio]-9 H-purin-9-yl}ethyl)piperidine-1-carbaldehyde], above 5 µM; with `COC(=O)c1ccnc(Sc2nc3c(N)ncnc3n2CCC2CCN(C=O)CC2)c1` [Example 542, Methyl 2-({6-amino-9-[2-(1-formylpiperidin-4-yl)ethyl]-9 H-purin-8-yl}thio)isonicotinate], above 5 µM.
Still for that read-out and setting: with `COc1cc(Sc2nc3c(N)ncnc3n2CCC2CCN(C=O)CC2)ncn1` [Example 544, 4-(2-{6-Amino-8-[(6-methoxypyrimidin-4-yl)thio]-9 H-purin-9-yl}ethyl)piperidine-1-carbaldehyde] the figure was 1.4 µM; with `Nc1ncnc2c1nc(Sc1cc3c(cc1Br)OCCO3)n2CCC1CCN(C=O)CC1` [Example 545, 4-(2-{6-Amino-8-[(7-bromo-2,3-dihydro-1,4-benzodioxin-6-yl)thio]-9 H-purin-9-yl}ethyl)piperidine-1-carbaldehyde], 0.05 µM.
The same measure, in the same setting: with `Cc1ccsc1Sc1nc2c(N)ncnc2n1CCC1CCN(C=O)CC1` [Example 546, 4-(2-{6-Amino-8-[(3-methyl-2-thienyl)thio]-9 H-purin-9-yl}ethyl)piperidine-1-carbaldehyde] the figure was above 5 µM.
Consider `CC(=O)Nc1ccc(Sc2nc3c(N)ncnc3n2CCC2CCN(C=O)CC2)c(Cl)c1` [Example 548, N-[4-({6-Amino-9-[2-(1-formylpiperidin-4-yl)ethyl]-9 H-purin-8-yl}thio)-3-chlorophenyl]acetamide], for which the IC50 was above 5 µM.
On the same count and under the same terms, with `Nc1ncnc2c1nc(Sc1ncccc1Br)n2CCC1CCN(C=O)CC1` [Example 550, 4-(2-{6-Amino-8-[(3-bromopyridin-2-yl)thio]-9 H-purin-9-yl}ethyl)piperidine-1-carbaldehyde] the figure was above 5 µM.
On the same count and under the same terms, next, `Nc1ncnc2c1nc(Sc1cc(OCc3ccccc3)c(OCc3ccccc3)cc1Br)n2CCC1CCN(C=O)CC1` [Example 553, 4-[2-(6-Amino-8-{[4,5-bis (benzyloxy)-2-bromophenyl]thio}-9 H-purin-9-yl)ethyl]piperidine-1-carbaldehyde]: above 5 µM.
Still for that read-out and setting: with `Nc1ncnc2c1nc(Sc1ccc3c(c1)CCC3=O)n2CCC1CCN(C=O)CC1` [Example 555, 4-(2-{6-Amino-8-[(1-oxo-2,3-dihydro-1 H-inden-5-yl)thio]-9 H-purin-9-yl}ethyl)piperidine-1-carbaldehyde] the figure was 0.7 µM; with `COc1c(Sc2nc3c(N)ncnc3n2CCC2CCN(C=O)CC2)cc(C)c2c1CCC2` [Example 556, 4-(2-{6-Amino-8-[(4-methoxy-7-methyl-2,3-dihydro-1 H-inden-5-yl)thio]-9 H-purin-9-yl}ethyl)piperidine-1-carbaldehyde], 2 µM.
Regarding `COc1ccc(OC)c(Sc2nc3c(N)ncnc3n2CCC2CCN(C(C)=O)CC2)c1` [Example 557, 9-[2-(1-Acetylpiperidin-4-yl)ethyl]-8-[(2,5-dimethoxyphenyl)thio]-9 H-purin-6-amine], the IC50 is 1.5 µM.
On the same count and under the same terms, with `COc1cc(Sc2nc3c(N)ncnc3n2CCC2CCN(C=O)CC2)c(OC)cc1Cl` [Example 558, 4-(2-{6-Amino-8-[(4-chloro-2,5-dimethoxyphenyl)thio]-9 H-purin-9-yl}ethyl)piperidine-1-carbaldehyde] the figure was above 5 µM; with `COc1cc(F)c(Sc2nc3c(N)ncnc3n2CCC2CCN(C(C)=O)CC2)cc1F` [Example 559, 9-[2-(1-Acetylpiperidin-4-yl)ethyl]-8-[(2,5-difluoro-4-methoxyphenyl)thio]-9 H-purin-6-amine], above 5 µM.
In turn, `CC(=O)N1CCC(CCn2c(Sc3cc(F)c(F)cc3Br)nc3c(N)ncnc32)CC1` [Example 560, 9-[2-(1-Acetylpiperidin-4-yl)ethyl]-8-[(2-bromo-4,5-difluorophenyl)thio]-9 H-purin-6-amine] had a concentration for half-maximal inhibition (IC50) above 5 µM.
For the compound `CC(=O)N1CCC(CCn2c(Sc3ccc4c(c3)OCO4)nc3c(N)ncnc32)CC1` [Example 561, 9-[2-(1-Acetylpiperidin-4-yl)ethyl]-8-(1,3-benzodioxol-5-ylthio)-9 H-purin-6-amine], the 50% inhibitory concentration (IC50) is above 5 µM.
Still for that read-out and setting: next, `COc1cc(Sc2nc3c(N)ncnc3n2CCC2CCN(C(C)=O)CC2)c(OC)cc1Cl` [Example 563, 9-[2-(1-Acetylpiperidin-4-yl)ethyl]-8-[(4-cloro-2,5-dimethoxyphenyl)thio]-9 H-purin-6-amine]: above 5 µM; `COc1cc(Br)c(Sc2nc3c(N)ncnc3n2CCC2CCN(C(C)=O)CC2)cc1OC` [Example 565, 9-[2-(1-Acetylpiperidin-4-yl)ethyl]-8-[(2-bromo-4,5-dimethoxyphenyl)thio]-9 H-purin-6-]: above 5 µM.
Still for that read-out and setting: next, `COc1ccc(Sc2nc3c(N)ncnc3n2CCC2CCN(C(C)=O)CC2)cc1F` [Example 567, 9-[2-(1-Acetylpiperidin-4-yl)ethyl]-8-[(3-fluoro-4-methoxyphenyl)thio]-9 H-purin-6-amine]: above 5 µM.
The same measure, in the same setting: with `COc1c(F)cc(Sc2nc3c(N)ncnc3n2CCC2CCN(C(C)=O)CC2)cc1Cl` [Example 569, 9-[2-(1-Acetylpiperidin-4-yl)ethyl]-8-[(3-chloro-5-fluoro-4-methoxyphenyl)thio]-9 H-purin-6-amine] the figure was above 5 µM.
